# Literature values, collected in patent publication US4922021A, “New alkylene diamine derivatives” (BASF Aktiensellschaft, priority 1981, dated 1990).
# Tests used:
# respiratory centre = conditions: Bull. Soc. Chim. France 1947, 827; cited from earlier work
# [1] = tested on: sympathic nervious system; conditions: Bull. Soc. Chim. France 1940, 603; cited from earlier work
# [2] = literature; cited from earlier work
structure (smiles),measurement,setting,value
CCN(CC)CCNc1cccc(Cl)c1 [1-(3-chlorophenyl-amino)-2-diethylamino-ethane],stimulates the respiratory centre,respiratory centre,stimulates the respiratory centre
CC(CN)Nc1ccccc1 (stereo not drawn) [1-amino-2-phenylamino-propane],acting on the sympathetic nervous system,[1],acting on the sympathic nervious system
"CCN(CC)CCNc1c(C)cccc1C [1-(2,6-dimethylphenyl-amino)-2-diethylamino-ethane]",local anaesthetic effects,[2],local anaesthetic effects
